Structures can show the parent of a compound that is named as a salt.
Tests used:
[1] = biological target: β2AR (Homo sapiens, UniProt P07550); format: binding
[2] = biological target: β2AR-Gαs (Homo sapiens, UniProt P07550); assay: Saturation binding of [3H] DHA, membranes of t β2AR-Gαs HEK 293 cells
[3] = biological target: T1, β2AR-βarr2 (Homo sapiens, UniProt P07550+P32121); assay: Saturation binding of [3H] DHA, membranes of t β2AR-βarr2 HEK 293 cells
[4] = biological target: T1, β2AR-βarr2; assay: ERK1/2 phosphorylation; format: cell-based; settings: t β2AR-βarr2 HEK 293; PTX 100ng/ml overnight

Chain of β2AR (P07550 whole entry): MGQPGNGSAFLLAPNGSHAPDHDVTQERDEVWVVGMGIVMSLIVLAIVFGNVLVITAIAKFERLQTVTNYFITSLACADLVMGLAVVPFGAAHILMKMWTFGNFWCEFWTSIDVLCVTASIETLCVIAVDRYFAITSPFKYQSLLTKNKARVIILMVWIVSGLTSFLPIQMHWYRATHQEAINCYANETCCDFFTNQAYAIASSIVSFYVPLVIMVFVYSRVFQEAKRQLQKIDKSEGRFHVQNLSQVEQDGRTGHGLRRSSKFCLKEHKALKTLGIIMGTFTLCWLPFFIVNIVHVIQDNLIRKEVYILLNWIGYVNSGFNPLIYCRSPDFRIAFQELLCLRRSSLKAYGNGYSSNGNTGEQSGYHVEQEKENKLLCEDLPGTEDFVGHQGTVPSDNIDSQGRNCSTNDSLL

Molecule	Kd [1] [nM]	Kd [2] [nM]	Kd [3] [nM]	effect on constitutive ERK1/2 phosphorylation [4]
CCCc1ccccc1OC[C@@H](O)CNC(C)C [[3H] dihydroalprenolol, Dihydroalprenolol hydrochloride, levo‐[ring, propyl‐^3H(N)]‐]	0.148 ± 0.028	0.213 ± 0.049	0.233 ± 0.022	
pertussis toxin				no effect

Reference: publication PMC9721090 (FASEB BioAdvances, 2022)
